Data taken from US20100279409A1, “METHOD FOR MODIFYING CELLUAR IMMUNE RESONSE BY MODULATING ACTIVIN ACTIVITY” (priority 2007, published 2010).

Experiments:
CD8+ T cells = test: Purified CD8+ T cell activation and expansion with recombinant activin-A; assay type: cell-based, human; conditions: anti-CD3/CD28 beads, activin-A 0, 10, 100 ng/ml, 24 or 72 hours
Protocol: To test this, CD8^+ T cells were purified and labeled with carboxy fluorescein succinimidy/ester (“CFSE” hereafter). These cells were cultured in wells, at 1×10^5 cells/well, in standard medium supplemented with 20 U/ml of IL-2, either with or without anti-CD3/CD28 bead stimulation, in the presence of increasing doses of commercially available, recombinant activin-A (0, 10, and 100 ng/ml), for 24 or 72 hours. Cell division was assessed over time by flow cytometry and IFN-γ production via a standard ELISA.

C57/B6 mice = assay type: in vivo, mouse; conditions: 100 ng activin-A subcutaneously, live influenza virus intraperitoneally, day 7
NK cells = test: Multiplex cytokine and chemokine array of NK cell supernatants; assay type: cell-based, human; conditions: activated NK cells
Protocol: The analysis reported supra was extended to an analysis of the supernatants produced during the various cell culture experiments. A multiplex array system for chemokines and cytokines were used, as was a standard ELISA for measuring IFN-γ. Bead arrays were used to quantify each of IFN-γ, IL-1 IL-6, IL-8, IL-10, TNF-α, GM-CSF, IP-10, MCP-1, MIP-1α, and 1β. Levels of production were measured using standard methodologies.

## activin-A
CD8+ T cells
  CD8+ T cell ability to generate IFN-γ: did not regulate
  CD8+ T cell division: did not regulate
C57/B6 mice
  peptide specific CD8+ IFN-γ+ T cell response: suppressed
NK cells
  GM-CSF production: suppressed
  IFN-γ production (bead array): suppressive effect
  IL-1β production: suppressed
  IL-6 production: suppressed
  IL-8 production: suppressing
  IL-10 production: increased the low amounts of IL-10 that had been produced, significantly
  IP-10 production: suppressing
  MIP-1α production: suppressing
  MIP-1β production: suppressing
  TNF-α production: suppressed
